Laboratory results as given in PMC5321434, “Dihydrobenz[e][1,4]oxazepin-2(3H)-ones, a new anthelmintic chemotype immobilising whipworm and reducing infectivity in vivo” (PLoS Neglected Tropical Diseases, 2017).
Where two headings read alike, the source gives them in different places.

Key:
[1] = tested on: CMT-93 murine rectal epithelial cells; test: WST-8 cytotoxicity assay; type: cell-based, mouse; settings: CMT-93 cells, 72 hours, maximum tested concentration 100μM, n = 8, 95% confidence interval in parentheses
Method: (§1) CMT-93 murine rectal epithelial cells were maintained in Dulbecco's Modified Eagle's Medium (DMEM) with 10% fetal calf serum (FCS) and 1% penicillin-streptomycin solution (10,000U/ml). Cells were plated in 96-well tissue culture plates at a density of 2x10^2 cells per well in a volume of 100μl, and cultured for 96 hours (37°C, 5% CO2) until reaching 30% confluence. The growth medium was removed and replaced with treatment media (DMEM, 1% FCS, 1% penicillin-streptomycin solution, 100μl assay volume) supplemented with vehicle alone (DMSO), test compounds or chlorpromazine, a positive control for cytotoxicity (final concentrations from 0 to 100μM). Maximum vehicle concentration for all compounds was 0.5% DMSO. Cells were cultured with the test compounds for 72 hours before cytotoxicity measurement. The WST-8 assay was performed using the Cell Counting Kit– 8 (Sigma Aldrich # 96992). 10μl of the CCK-8 solution was added to each well, plates were incubated for a further 2 hours, before absorbance was measured at 450nm using a microplate reader. This assay measures the ability of metabolically active cells to reduce a water-soluble formazan dye. Results were analysed using GraphPad Prism and fitted using a log-logistic model.

adult T. muris = test: Ex vivo adult T. muris automated motility assay (primary/secondary screen at 100 μM and dose-response); set-up: species or system Trichuris muris; settings: for PRIMARY_SCREEN_MINUS_LOG_FOLD_CHANGE_MOVEMENT: primary screen; for PRIMARY_SCREEN_MINUS_LOG_FOLD_CHANGE_MOVEMENT / SECONDARY_SCREEN_MINUS_LOG_FOLD_CHANGE_MOVEMENT: adult T. muris motility; for SECONDARY_SCREEN_MINUS_LOG_FOLD_CHANGE_MOVEMENT: secondary screen
Procedure, shortened: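 Motility scored after 24 h (37 °C, 5% CO2) by automated imaging of pixel intensity variance, one worm per well, four weekly biological replicates. Worms came from SCID mice infected orally with 200 eggs, harvested day 35; screening at 100 μM final in RPMI-1640/antibiotics, 1% DMSO; curves fitted with four-parameter log-logistic model.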

[2] = tested on: CMT-93 murine rectal epithelial cells; test: Neutral red cytotoxicity assay; type: cell-based, mouse; settings: CMT-93 cells, 72 hours, maximum tested concentration 100μM, n = 8, 95% confidence interval in parentheses
Method: (§2) CMT-93 murine rectal epithelial cells were maintained in Dulbecco's Modified Eagle's Medium (DMEM) with 10% fetal calf serum (FCS) and 1% penicillin-streptomycin solution (10,000U/ml). Cells were plated in 96-well tissue culture plates at a density of 2x10^2 cells per well in a volume of 100μl, and cultured for 96 hours (37°C, 5% CO2) until reaching 30% confluence. The growth medium was removed and replaced with treatment media (DMEM, 1% FCS, 1% penicillin-streptomycin solution, 100μl assay volume) supplemented with vehicle alone (DMSO), test compounds or chlorpromazine, a positive control for cytotoxicity (final concentrations from 0 to 100μM). Maximum vehicle concentration for all compounds was 0.5% DMSO. Cells were cultured with the test compounds for 72 hours before cytotoxicity measurement. Following the WST-8 assay, the medium was removed, cells were washed with 100μl PBS and then 100μl of neutral red medium (DMEM, 1% FBS and 33μg/ml neutral red dye (Sigma Aldrich #N2889) were added to each well, followed by incubation for a further 2 hours. The neutral red medium was removed, cells washed with 100μl of PBS and 100μl of destain solution (50% ethanol, 49% distilled water and 1% glacial acetic acid) were added. Each assay plate was shaken rapidly for 10 minutes before absorbance was measured at 540nm using a microplate reader. This assay measures the ability of living cells to actively take up the neutral red dye. Results were analysed using GraphPad Prism and fitted using a log-logistic model.

[3] = tested on: embryonated T. muris eggs; test: In vivo establishment of infection by compound-treated embryonated eggs; set-up: species or system Trichuris muris
Method: 100 infective embryonated eggs were incubated with water, water plus DMSO vehicle, or test compounds at a final concentration of 100μM for 14 days at room temperature. Eggs were then washed, re-suspended in water and 30 eggs given to a mouse via oral gavage. At day 15 post-infection, mice were culled and the number of worms present in the caecae and colon was counted. One data point was excluded: a water control individual mouse where there were technical difficulties with the oral gavage leading to the mouse regurgitating some of the T. muris eggs. It was ear marked at day of gavage and removed from the analysis.
We collected data using the same experimental design on different occasions, these are referred to as batches. Data were obtained from three batches (DMSO and water controls, batches [A,B,C]) or two batches (OX02983 [A,C], OX03153 [B,C]) with the total number of mice used, n, as follows: DMSO: 14, water: 16, OX02983: 10, OX03153: 12. The data were analysed by 2-way ANOVA (worms ~ treatment + batch + treatment * batch). There was no significant interaction effect (P = 0.14) or effect of batch (P = 0.47). We therefore combined the data from the three batches. […] We then conducted a post-hoc test using Tukey’s honest significant difference test.

WST-8 cytotoxicity assay = type: cell-based, mouse; settings: mouse, CMT-93 rectal epithelial cells; resynthesised compound, WST-8 cytotoxicity; read-out: ResynCytotoxityWST-8(EC50uM)
Method: as §1

[4] = tested on: un-embryonated T. muris eggs; test: Embryonation assay; set-up: species or system Trichuris muris; settings: resynthesised compound, activity on T. muris embryonation (Yes/No)
Method: To assess whether the dihydrobenzoxazepinone compounds could also prevent embryonation, 100 un-embryonated eggs were treated with OX02983 and OX03153 at 100μM for 56 days in the dark at room temperature, then examined under an Olympus SD-ILK microscope for signs of embryonation.

[5] = Neutral red cytotoxicity assay; type: cell-based, mouse; settings: mouse, CMT-93 rectal epithelial cells; resynthesised compound, neutral red cytotoxicity; read-out: ResynCytotoxicityNeutralRed(EC50uM)
Method: as §2

[6] = Trichuris muris, resynthesised compound, adult T. muris paralysis, read-out: ResynActivityTmurisAdultParalysis(EC50uM)
[7] = combined primary and secondary screen minus log fold change in movement, adult T. muris, 100 μM
[8] = adult T. muris motility screen at 100 μM, combines primary and secondary screen minus log fold change in movement (mean where both are given)

Molecule | EC50 at 72 h (WST-8 cytotoxicity assay) | EC50 (adult T. muris; [6]) | COMBINED_SCREEN_ACTIVITY (adult T. muris; [7]) | PRIMARY_SCREEN_MINUS_LOG_FOLD_CHANGE_MOVEMENT (adult T. muris; 100 μM) | SECONDARY_SCREEN_MINUS_LOG_FOLD_CHANGE_MOVEMENT (adult T. muris; 100 μM) | EC50 at 72 h [5] | COMBINED_SCREEN_ACTIVITY (adult T. muris; [8]) | other results
1-(4-Methylbenzyl)-7-(pyridin-4-yl)-1,5-dihydrobenzo[e][1,4]oxazepin-2(3H)-one [OX03153] |  |  |  |  |  |  |  | EC50 [1]: > 100 µM; EC50 (adult T. muris; values of Fig 5 shown for comparison, read-out: EC50 in adult Trichuris paralysis assay): 57 µM; EC50 [2]: > 100 µM; Reduction of infectivity in vivo of treated embryonated eggs ([3]; eggs soaked 14 days at 100μM, washed, 30 eggs by oral gavage to mice, worms counted day 15, versus DMSO control): not active
CN(C)CCCN1c2ccccc2Sc2ccc(Cl)cc21 [Chlorpromazine, reference compound] |  |  |  |  |  |  |  | EC50 ([1]; Mus musculus, CMT93): 9 µM; EC50 ([2]; Mus musculus, CMT93): 10 µM
Cc1ccc(CN2C(=O)COCc3cc(-c4ccncc4)ccc32)cc1 [Compound 1] | > 100 µM | 50 µM | 8.615 | 10.6993 | 6.531 | > 100 µM |  | ResynActivityTmurisEmbryonation [4]: No; ResynActivityTmurisEggInfectivity ([3]; resynthesised compound, activity on T. muris egg infectivity (Yes/No)): Yes
O=C1COCc2cc(-c3cccnc3)ccc2N1CC1CCCCC1 [Compound 2] | > 100 µM | 52 µM | 11.5091 | 10.3993 | 12.6188 | > 100 µM |  | 
O=C1COCc2cc(-c3cccnc3)ccc2N1Cc1ccc(C(F)(F)F)cc1 [Compound 3] | > 100 µM | 26 µM | 11.4716 | 10.3243 | 12.6188 | 60 µM |  | 
Cc1ccc(CN2C(=O)COCc3cc(Br)ccc32)cc1 [Compound 4] | 63 µM | 35 µM | 11.5841 | 10.5493 | 12.6188 | 47 µM |  | 
CCN(CC)C(=O)c1cccc(-c2ccc3c(c2)N(Cc2ccccc2)C(=O)COC3)c1 [Compound 187] |  |  |  | 7.09 | 12.6188 |  | 9.854 | 
COc1ccccc1-c1ccc2c(c1)COCC(=O)N2Cc1ccc(C(=O)N(C)C)cc1 [Compound 188] |  |  |  | 1.744 |  |  | 1.744 | 
CC(C)c1cccc(-c2ccc3c(c2)COCC(=O)N3Cc2ccc(C(=O)N(C)C)cc2)c1 [Compound 190] |  |  |  | 10.3993 | 11.6188 |  | 11.0091 | 
CCN(CC)C(=O)c1cccc(-c2ccc3c(c2)N(Cc2ccccc2C)C(=O)COC3)c1 [Compound 191] |  |  |  | 10.7743 | 11.0339 |  | 10.9041 | 
CN(C)C(=O)c1ccc(CN2C(=O)COCc3cc(-c4ccc5c(c4)OCO5)ccc32)cc1 [Compound 192] |  |  |  | 10.5493 |  |  | 10.5493 | 
